Consider 22 compounds from patent publication US10399988B2, “4-aminopyrazolo[3,4-d]pyrimidinylazabicyclo derivatives and pharmaceutical composition comprising the same” (Daewoong Pharmaceutical Co., Ltd., priority 2016, dated 2019).

For this assay, the target named is BTK (Homo sapiens, UniProt Q06187). Put plainly: Inhibitory activity against BTK (ADP-Glo + BTK Kinase enzyme system kit).
BTK, sequence (Q06187 whole entry): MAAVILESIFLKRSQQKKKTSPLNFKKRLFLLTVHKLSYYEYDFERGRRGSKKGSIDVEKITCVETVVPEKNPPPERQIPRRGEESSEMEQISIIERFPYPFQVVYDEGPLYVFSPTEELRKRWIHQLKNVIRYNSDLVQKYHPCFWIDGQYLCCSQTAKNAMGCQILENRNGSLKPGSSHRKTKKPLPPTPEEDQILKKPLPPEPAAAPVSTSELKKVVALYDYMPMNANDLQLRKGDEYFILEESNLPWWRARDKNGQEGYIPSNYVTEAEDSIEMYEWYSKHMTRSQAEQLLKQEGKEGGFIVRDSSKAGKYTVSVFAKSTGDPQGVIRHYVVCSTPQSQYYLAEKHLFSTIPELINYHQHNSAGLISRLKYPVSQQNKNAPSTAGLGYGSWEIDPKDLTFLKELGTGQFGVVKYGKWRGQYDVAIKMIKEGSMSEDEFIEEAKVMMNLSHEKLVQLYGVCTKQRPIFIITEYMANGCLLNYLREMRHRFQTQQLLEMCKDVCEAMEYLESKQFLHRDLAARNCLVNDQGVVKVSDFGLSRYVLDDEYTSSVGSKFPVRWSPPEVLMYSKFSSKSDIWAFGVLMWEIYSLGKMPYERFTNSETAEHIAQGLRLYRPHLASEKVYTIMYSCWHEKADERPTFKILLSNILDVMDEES
For orientation: IC50 means the concentration at which inhibition is half-maximal. Turning to `C#CC(=O)N1CC2CC1C(n1nc(-c3ccc(Nc4ccccc4)cc3)c3c(N)ncnc31)C2` (stereo not shown) [Ex. 31, 1-(6-(4-amino-3-(4-(phenylamino)phenyl)-1H-pyrazolo[3,4-d]pyrimidin-1-yl)-2-azabicyclo[2.2.1]heptan-2-yl)prop-2-yn-1-one], the IC50 worked out at 12.5 nM. For `C=CC(=O)N1CC2CC1C(n1nc(-c3cccc(C(=O)Nc4ccccc4)c3)c3c(N)ncnc31)C2` (stereo not shown) [Ex. 21, 3-(1-(2-acryloyl-2-azabicyclo[2.2.1]heptan-6-yl)-4-amino-1H-pyrazolo[3,4-d]pyrimidin-3-yl)-N-phenylbenzamide], the IC50 was 63 nM. Consider `Nc1ncnc2c1c(-c1ccc(Oc3ccccc3)cc1)nn2C1CC2CC1N(C(=O)C#CC1CC1)C2` (stereo not shown) [Ex. 28, 1-(6-(4-amino-3-(4-phenoxyphenyl)-1H-pyrazolo[3,4-d]pyrimidin-1-yl)-2-azabicyclo[2.2.1]heptan-2-yl)-3-cyclopropylprop-2-yn-1-one], for which the IC50 came out at 25.2 nM. Next, `C=CC(=O)N1CC2CC1C(n1nc(-c3ccc(NC(=O)c4ccccc4)cc3)c3c(N)ncnc31)C2` (stereo not shown) [Ex. 37, N-(4-(1-(2-acryloyl-2-azabicyclo[2.2.1]heptan-6-yl)-4-amino-1H-pyrazolo[3,4-d]pyrimidin-3-yl)phenyl)benzamide]: 5.1 nM; `C#CC(=O)N1CC2CC1C(n1nc(-c3cccc(C(=O)Nc4ccccc4)c3)c3c(N)ncnc31)C2` (stereo not shown) [Ex. 18, 3-(4-amino-1-(2-propioloyl-2-azabicyclo[2.2.1]heptan-6-yl)-1H-pyrazolo[3,4-d]pyrimidin-3-yl)-N-phenylbenzamide]: 6.9 nM. Regarding `C#CC(=O)N1C[C@@H]2C[C@H]1C[C@H]2n1nc(-c2ccc(Oc3ccccc3)cc2)c2c(N)ncnc21` [Ex. 13, 1-((1S,4S,5R)-5-(4-amino-3-(4-phenoxyphenyl)-1H-pyrazolo[3,4-d]pyrimidin-1-yl)-2-azabicyclo[2.2.1]heptan-2-yl)prop-2-yn-1-one], the IC50 was found to be 2 nM. Next, `Nc1ncnc2c1c(-c1ccc(Oc3ccccc3)cc1)nn2C1CC2CC1N(C(=O)/C=C/CN1CCOCC1)C2` (stereo not shown) [Ex. 58, (E)-1-(6-(4-amino-3-(4-phenoxyphenyl)-1H-pyrazolo[3,4-d]pyrimidin-1-yl)-2-azabicyclo[2.2.1]heptan-2-yl)-4-morpholinobut-2-en-1-one]: 5.3 nM; `C=CC(=O)N1CC2CC1C(n1nc(-c3ccc(C(=O)Nc4ccccc4)cc3F)c3c(N)ncnc31)C2` (stereo not shown) [Ex. 52, 4-(1-(2-acryloyl-2-azabicyclo[2.2.1]heptan-6-yl)-4-amino-1H-pyrazolo[3,4-d]pyrimidin-3-yl)-3-fluoro-N-phenylbenzamide]: 5.1 nM; `C=CC(=O)N1CC2CC1C(n1nc(-c3ccc(NC(=O)c4ccccc4N(C)C)cc3)c3c(N)ncnc31)C2` (stereo not shown) [Ex. 57, N-(4-(1-(2-acryloyl-2-azabicyclo[2.2.1]heptan-6-yl)-4-amino-1H-pyrazolo[3,4-d]pyrimidin-3-yl)phenyl)-2-(dimethylamino)benzamide]: 8.8 nM. Next, `C=CC(=O)N1CC2CC1CC2n1nc(-c2cccc(Oc3ccccc3)c2)c2c(N)ncnc21` (stereo not shown) [Ex. 25, 1-(5-(4-amino-3-(3-phenoxyphenyl)-1H-pyrazolo[3,4-d]pyrimidin-1-yl)-2-azabicyclo[2.2.1]heptan-2-yl)prop-2-en-1-one]: 72.3 nM. Then `C=CC(=O)N1CC2CC1C(n1nc(-c3cccc(C(=O)Nc4ccc(C(F)(F)F)nc4)c3)c3c(N)ncnc31)C2` (stereo not shown) [Ex. 26, 3-(1-(2-acryloyl-2-azabicyclo[2.2.1]heptan-6-yl)-4-amino-1H-pyrazolo[3,4-d]pyrimidin-3-yl)-N-(6-(trifluoromethyl)pyridin-3-yl)benzamide], with 295 nM; and `C=CC(=O)N1C[C@@H]2C[C@H]1[C@@H](n1nc(-c3ccc(C(=O)NC)cc3F)c3c(N)ncnc31)C2` [Ex. 79, 4-(1-((1S,4R,6S)-2-acryloyl-2-azabicyclo[2.2.1]heptan-6-yl)-4-amino-1H-pyrazolo[3,4-d]pyrimidin-3-yl)-3-fluoro-N-methylbenzamide], with 77.1 nM; and `C#CC(=O)N1CC2CC1C(n1nc(-c3ccc(-c4ccccc4)cc3)c3c(N)ncnc31)C2` (stereo not shown) [Ex. 30, 1-(6-(4-amino-3-(biphenyl-4-yl)-1H-pyrazolo[3,4-d]pyrimidin-1-yl)-2-azabicyclo[2.2.1]heptan-2-yl)prop-2-yn-1-one], with > 1000 nM. Regarding `C=CC(=O)N1CC2CC1C(n1nc(-c3ccc(NC(=O)c4cccc(N(C)C)c4)cc3)c3c(N)ncnc31)C2` (stereo not shown) [Ex. 50, N-(4-(1-(2-acryloyl-2-azabicyclo[2.2.1]heptan-6-yl)-4-amino-1H-pyrazolo[3,4-d]pyrimidin-3-yl)phenyl)-3-(dimethylamino)benzamide], the IC50 was 28.6 nM. Turning to `CC#CC(=O)N1CC2CC1C(n1nc(-c3cccc(C(=O)Nc4ccccc4)c3)c3c(N)ncnc31)C2` (stereo not shown) [Ex. 22, 3-(4-amino-1-(2-but-2-ynoyl-2-azabicyclo[2.2.1]heptan-6-yl)-1H-pyrazolo[3,4-d]pyrimidin-3-yl)-N-phenylbenzamide], the concentration for half-maximal inhibition (IC50) was > 1000 nM. Next, `Nc1ncnc2c1c(-c1ccc(Oc3ccccc3)cc1)nn2C1CC2CC1CN2C(=O)/C=C/CBr` (stereo not shown) [Ex. 65, (E)-1-(5-(4-amino-3-(4-phenoxyphenyl)-1H-pyrazolo[3,4-d]pyrimidin-1-yl)-2-azabicyclo[2.2.1]heptan-2-yl)-4-bromobut-2-en-1-one]: 6.7 nM. Then `C=CC(=O)N1CC2CC1C(n1nc(-c3ccc(NC(=O)Nc4ccccc4)cc3)c3c(N)ncnc31)C2` (stereo not shown) [Ex. 39, 1-(4-(1-(2-acryloyl-2-azabicyclo[2.2.1]heptan-6-yl)-4-amino-1H-pyrazolo[3,4-d]pyrimidin-3-yl)phenyl)-3-phenylurea], with 15.2 nM; and `C#CC(=O)N1CC2CC1CC2n1nc(-c2ccc(Oc3ccccc3)cc2)c2c(N)ncnc21` (stereo not shown) [Ex. 11, 1-(5-(4-amino-3-(4-phenoxyphenyl)-1H-pyrazolo[3,4-d]pyrimidin-1-yl)-2-azabicyclo[2.2.1]heptan-2-yl)prop-2-yn-1-one], with 2.8 nM. Then `C=CC(=O)N1CC2CC1C(n1nc(-c3ccc(C(=O)Nc4cnn(C)c4)cc3)c3c(N)ncnc31)C2` (stereo not shown) [Ex. 56, 4-(1-(2-acryloyl-2-azabicyclo[2.2.1]heptan-6-yl)-4-amino-1H-pyrazolo[3,4-d]pyrimidin-3-yl)-N-(1-methyl-1H-pyrazol-4-yl)benzamide], with 143 nM; and `CC#CC(=O)N1CC2CC1C(n1nc(-c3ccc(C(=O)Nc4ccccc4)cc3)c3c(N)ncnc31)C2` (stereo not shown) [Ex. 20, 4-(4-amino-1-(2-(but-2-ynoyl)-2-azabicyclo[2.2.1]heptan-6-yl)-1H-pyrazolo[3,4-d]pyrimidin-3-yl)-N-phenylbenzamide], with > 1000 nM; and `C=CC(=O)N1CC2CC1C(n1nc(-c3ccc(C(=O)Nc4cc(C(F)(F)F)ccn4)cc3)c3c(N)ncnc31)C2` (stereo not shown) [Ex. 29, 4-(1-(2-acryloyl-2-azabicyclo[2.2.1]heptan-6-yl)-4-amino-1H-pyrazolo[3,4-d]pyrimidin-3-yl)-N-(4-(trifluoromethyl)pyridin-2-yl)benzamide], with 16.9 nM. On to `C#CC(=O)N1CC2CC1C(n1nc(-c3ccc(C(=O)Nc4cc(C(F)(F)F)ccn4)cc3)c3c(N)ncnc31)C2` (stereo not shown) [Ex. 6, 4-(4-amino-1-(2-propioloyl-2-azabicyclo[2.2.1]heptan-6-yl)-1H-pyrazolo[3,4-d]pyrimidin-3-yl)-N-(4-(trifluoromethyl)pyridin-2-yl)benzamide], for which the IC50 is 22.7 nM.
